Data on eleven molecules can be found in US10745384B2, “Indazole derivatives as αv integrin antagonists” (BRISTOL-MYERS SQUIBB COMPANY, priority 2016, dated 2020).

The structures appear in SMILES notation. Where a name gives a salt, the structure may show the parent alone.

Broadly, the IC50 is the concentration needed to halve the response being measured.

One assay concerns the target human αVβ3 (Homo sapiens, UniProt P05106+P06756). Description: human αVβ3 HTRF binding assay. The protocol:
(§1) All binding assays used the HTRF (homogeneous time resolved fluorescence) technology from Cisbio International, therefore all assays are described as HTRF binding assays. The assay results for the Examples are listed above together with the characterization data. The HTRF binding assays are established for the following integrins: human αVβ6, human αVβ1, human αVβ3, human αVβ5, and human αVβ8. All assays used the following assay buffer: 20 mM Tris, pH 7.4, 1 mM MgCl2, 1 mM MnCl2, 0.01% Tween 20, and 0.01% BSA. Alternatively, a SPA-based assay was used for evaluation of receptor binding.
(§2) The following describes the components and a representative procedure for the human αVβ6 HTRF binding assay: Recombinant human αVβ6 Integrin (R & D systems, 3817-AV) was biotinylated. Biotinylated human αVβ6 Integrin was added to assay vessel at a final concentration of 1.25 nM. FITC-conjugated fibronectin (Cytoskeleton, FNR02) was then added at the final concentration of 5 nM. The mixture was centrifuged at 600 rpm for three minutes using Thermo Fisher Heraeus Multifuge X3 centrifuge and then incubated at room temperature for an hour. Streptavidin Terbium (Cisbio international 610STLB) was then added at the final concentration of 0.625 nM. The resulting mixture was centrifuged at 600 rpm for three minutes using Thermo Fisher Heraeus Multifuge X3 centrifuge and then incubated at room temperature overnight in dark before reading HTRF signals. […]
In general terms: Time-resolved FRET reads energy transfer from a long-lived donor to a nearby acceptor.

The target in the next assay is human αVβ8 (Homo sapiens, UniProt P06756+P26012). Description: human αVβ8 HTRF binding assay. As for the experimental part: as §1, §2
Another assay concerns the target human αVβ1 (Homo sapiens, UniProt P05556+P06756). Description: human αVβ1 HTRF binding assay. The protocol: as §1
The following describes the components and a representative procedure for the human αVβ6 HTRF binding assay: Recombinant human αVβ6 Integrin (R & D systems, 3817-AV) was biotinylated. Biotinylated human αVβ6 Integrin was added to assay vessel at a final concentration of 1.25 nM. FITC-conjugated fibronectin (Cytoskeleton, FNR02) was then added at the final concentration of 5 nM. The mixture was centrifuged at 600 rpm for three minutes using Thermo Fisher Heraeus Multifuge X3 centrifuge and then incubated at room temperature for an hour. Streptavidin Terbium (Cisbio international 610STLB) was then added at the final concentration of 0.625 nM. The resulting mixture was centrifuged at 600 rpm for three minutes using Thermo Fisher Heraeus Multifuge X3 centrifuge and then incubated at room temperature overnight in dark before reading HTRF signals.
The SPA-based assay was carried out according to the protocol and procedures similar to the ones described in the following reference with appropriate modifications to agents and ligands which are readily understood by one skilled in the art: Pachter J A, Zhang R, Mayer-Ezell R., “Scintillation proximity assay to measure binding of soluble fibronectin to antibody-captured αVβ1 integrin” Anal Biochem. 1995 Sep. 1; 230(1):101-7.

Another assay has as its target T1, human αVβ6 (Homo sapiens, UniProt P06756+P18564).
T1 construct: purchased R & D systems 3817-AV
The assay is described as follows: human αVβ6 HTRF binding assay. The note with it: recombinant human αVβ6 integrin, FITC-conjugated fibronectin. A digest of the protocol:
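HTRF binding in 20 mM Tris pH 7.4 with 1 mM MgCl2, 1 mM MnCl2, 0.01% Tween 20 and 0.01% BSA. For αVβ6, biotinylated integrin (1.25 nM) and FITC-fibronectin (5 nM) were incubated 1 h at RT, then streptavidin-terbium (0.625 nM) was added overnight in the dark. An SPA-based fibronectin binding format was an alternative.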

For the next assay, the target named is human αVβ5 (Homo sapiens, UniProt P06756+P18084). Description: human αVβ5 HTRF binding assay. The protocol: as §1, §2
Chain of human αVβ5 (P06756 31-992 limits assumed): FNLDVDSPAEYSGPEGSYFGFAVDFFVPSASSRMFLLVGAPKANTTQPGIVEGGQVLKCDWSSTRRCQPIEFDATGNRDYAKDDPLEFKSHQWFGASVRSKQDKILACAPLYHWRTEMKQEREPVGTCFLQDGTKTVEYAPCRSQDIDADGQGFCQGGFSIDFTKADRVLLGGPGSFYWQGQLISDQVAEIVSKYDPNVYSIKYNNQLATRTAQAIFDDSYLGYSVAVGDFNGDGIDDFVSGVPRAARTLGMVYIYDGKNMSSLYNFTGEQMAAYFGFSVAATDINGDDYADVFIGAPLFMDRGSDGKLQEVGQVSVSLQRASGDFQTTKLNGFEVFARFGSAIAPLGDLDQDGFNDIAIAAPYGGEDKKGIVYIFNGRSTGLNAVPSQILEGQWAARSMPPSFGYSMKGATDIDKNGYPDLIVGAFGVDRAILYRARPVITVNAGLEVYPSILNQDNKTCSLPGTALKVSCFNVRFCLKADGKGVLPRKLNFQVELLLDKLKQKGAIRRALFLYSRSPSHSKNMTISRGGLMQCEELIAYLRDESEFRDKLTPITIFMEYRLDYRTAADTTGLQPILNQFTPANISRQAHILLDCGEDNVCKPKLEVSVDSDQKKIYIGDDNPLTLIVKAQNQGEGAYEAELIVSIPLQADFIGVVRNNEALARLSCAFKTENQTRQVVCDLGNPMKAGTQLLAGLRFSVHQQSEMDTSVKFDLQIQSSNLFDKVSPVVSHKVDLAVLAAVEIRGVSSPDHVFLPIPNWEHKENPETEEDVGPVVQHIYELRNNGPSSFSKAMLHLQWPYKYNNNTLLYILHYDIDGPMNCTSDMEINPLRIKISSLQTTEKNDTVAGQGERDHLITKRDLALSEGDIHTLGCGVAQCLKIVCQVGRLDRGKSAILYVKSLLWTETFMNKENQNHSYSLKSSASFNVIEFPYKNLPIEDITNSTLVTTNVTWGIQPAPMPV
Chain of human αVβ5 (P18084 24-719 limits assumed): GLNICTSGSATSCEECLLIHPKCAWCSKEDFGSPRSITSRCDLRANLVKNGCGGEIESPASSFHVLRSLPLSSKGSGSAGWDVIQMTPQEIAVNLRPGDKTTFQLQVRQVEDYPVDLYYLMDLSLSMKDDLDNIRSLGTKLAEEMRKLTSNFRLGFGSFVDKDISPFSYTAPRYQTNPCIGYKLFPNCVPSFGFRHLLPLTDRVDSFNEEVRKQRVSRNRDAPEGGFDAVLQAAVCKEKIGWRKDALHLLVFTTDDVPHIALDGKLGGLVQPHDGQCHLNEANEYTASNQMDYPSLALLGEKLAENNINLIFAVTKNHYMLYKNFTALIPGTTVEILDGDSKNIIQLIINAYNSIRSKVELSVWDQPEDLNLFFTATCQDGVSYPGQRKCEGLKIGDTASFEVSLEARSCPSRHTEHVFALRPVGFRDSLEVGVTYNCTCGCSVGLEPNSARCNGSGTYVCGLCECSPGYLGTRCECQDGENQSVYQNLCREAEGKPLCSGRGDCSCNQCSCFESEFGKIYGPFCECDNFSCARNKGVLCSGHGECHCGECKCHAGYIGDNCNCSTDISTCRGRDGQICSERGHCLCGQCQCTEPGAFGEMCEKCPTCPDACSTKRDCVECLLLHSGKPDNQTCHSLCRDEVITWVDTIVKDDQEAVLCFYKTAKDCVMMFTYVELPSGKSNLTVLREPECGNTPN

Chain of human αVβ8 (P06756 31-992 limits assumed): as the sequence (P06756 31-992 limits assumed) above
Chain of human αVβ8 (P26012 43-684 limits assumed): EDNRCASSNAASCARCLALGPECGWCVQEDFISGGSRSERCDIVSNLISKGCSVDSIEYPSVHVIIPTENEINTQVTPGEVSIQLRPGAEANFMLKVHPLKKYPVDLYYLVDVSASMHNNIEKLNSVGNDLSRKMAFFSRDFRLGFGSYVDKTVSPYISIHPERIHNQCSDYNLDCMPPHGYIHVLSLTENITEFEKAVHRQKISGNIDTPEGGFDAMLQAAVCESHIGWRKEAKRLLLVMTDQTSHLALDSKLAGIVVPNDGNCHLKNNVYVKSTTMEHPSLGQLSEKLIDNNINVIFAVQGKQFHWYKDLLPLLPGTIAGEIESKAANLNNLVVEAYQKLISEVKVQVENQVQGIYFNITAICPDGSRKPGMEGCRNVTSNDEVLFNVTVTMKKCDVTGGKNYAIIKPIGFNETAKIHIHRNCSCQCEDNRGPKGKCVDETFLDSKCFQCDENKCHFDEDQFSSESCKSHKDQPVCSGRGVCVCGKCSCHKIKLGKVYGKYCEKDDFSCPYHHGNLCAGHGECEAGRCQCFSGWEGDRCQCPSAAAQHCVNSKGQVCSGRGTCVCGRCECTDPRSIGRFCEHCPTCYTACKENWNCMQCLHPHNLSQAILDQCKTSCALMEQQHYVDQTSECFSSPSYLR
T1 sequence (P06756 31-992 limits assumed): as the sequence (P06756 31-992 limits assumed) above
T1 sequence (P18564 22-707 limits assumed): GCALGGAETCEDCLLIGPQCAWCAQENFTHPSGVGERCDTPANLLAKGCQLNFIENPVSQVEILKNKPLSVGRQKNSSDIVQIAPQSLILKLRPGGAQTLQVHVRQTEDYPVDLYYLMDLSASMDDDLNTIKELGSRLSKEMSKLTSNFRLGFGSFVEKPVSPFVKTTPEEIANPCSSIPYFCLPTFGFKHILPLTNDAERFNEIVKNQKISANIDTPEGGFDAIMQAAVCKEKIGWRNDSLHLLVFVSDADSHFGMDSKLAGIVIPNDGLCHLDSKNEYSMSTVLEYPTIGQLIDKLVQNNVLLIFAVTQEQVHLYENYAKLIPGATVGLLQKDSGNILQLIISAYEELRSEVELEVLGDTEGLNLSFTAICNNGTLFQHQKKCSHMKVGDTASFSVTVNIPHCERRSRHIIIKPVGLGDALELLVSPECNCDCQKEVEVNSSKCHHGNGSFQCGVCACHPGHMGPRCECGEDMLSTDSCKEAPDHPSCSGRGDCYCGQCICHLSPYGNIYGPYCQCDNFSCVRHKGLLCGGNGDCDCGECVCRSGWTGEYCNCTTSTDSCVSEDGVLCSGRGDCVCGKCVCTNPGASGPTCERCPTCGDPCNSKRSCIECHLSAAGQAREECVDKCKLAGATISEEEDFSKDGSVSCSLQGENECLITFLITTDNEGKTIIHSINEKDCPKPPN
Chain of human αVβ3 (P06756 31-992 limits assumed): as the sequence (P06756 31-992 limits assumed) above
Chain of human αVβ3 (P05106 27-718 limits assumed): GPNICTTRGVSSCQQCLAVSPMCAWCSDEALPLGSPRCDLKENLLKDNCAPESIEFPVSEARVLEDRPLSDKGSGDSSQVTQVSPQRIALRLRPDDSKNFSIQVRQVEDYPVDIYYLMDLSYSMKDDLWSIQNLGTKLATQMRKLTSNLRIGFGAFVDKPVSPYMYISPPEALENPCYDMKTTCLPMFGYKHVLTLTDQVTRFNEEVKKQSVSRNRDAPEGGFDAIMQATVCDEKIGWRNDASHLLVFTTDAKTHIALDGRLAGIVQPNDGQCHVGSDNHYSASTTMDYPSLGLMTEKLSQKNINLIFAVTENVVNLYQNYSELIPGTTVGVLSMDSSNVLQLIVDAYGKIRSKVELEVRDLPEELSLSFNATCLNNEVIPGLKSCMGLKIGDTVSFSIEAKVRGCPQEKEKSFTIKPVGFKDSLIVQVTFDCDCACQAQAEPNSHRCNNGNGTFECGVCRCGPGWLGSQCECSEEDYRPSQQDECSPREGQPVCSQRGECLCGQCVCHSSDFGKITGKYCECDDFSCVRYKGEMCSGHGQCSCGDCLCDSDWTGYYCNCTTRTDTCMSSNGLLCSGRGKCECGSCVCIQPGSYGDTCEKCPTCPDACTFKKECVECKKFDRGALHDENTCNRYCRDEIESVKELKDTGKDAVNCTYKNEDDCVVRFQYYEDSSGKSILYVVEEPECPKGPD
Chain of human αVβ1 (P06756 31-992 limits assumed): as the sequence (P06756 31-992 limits assumed) above
Chain of human αVβ1 (P05556 21-728 limits assumed): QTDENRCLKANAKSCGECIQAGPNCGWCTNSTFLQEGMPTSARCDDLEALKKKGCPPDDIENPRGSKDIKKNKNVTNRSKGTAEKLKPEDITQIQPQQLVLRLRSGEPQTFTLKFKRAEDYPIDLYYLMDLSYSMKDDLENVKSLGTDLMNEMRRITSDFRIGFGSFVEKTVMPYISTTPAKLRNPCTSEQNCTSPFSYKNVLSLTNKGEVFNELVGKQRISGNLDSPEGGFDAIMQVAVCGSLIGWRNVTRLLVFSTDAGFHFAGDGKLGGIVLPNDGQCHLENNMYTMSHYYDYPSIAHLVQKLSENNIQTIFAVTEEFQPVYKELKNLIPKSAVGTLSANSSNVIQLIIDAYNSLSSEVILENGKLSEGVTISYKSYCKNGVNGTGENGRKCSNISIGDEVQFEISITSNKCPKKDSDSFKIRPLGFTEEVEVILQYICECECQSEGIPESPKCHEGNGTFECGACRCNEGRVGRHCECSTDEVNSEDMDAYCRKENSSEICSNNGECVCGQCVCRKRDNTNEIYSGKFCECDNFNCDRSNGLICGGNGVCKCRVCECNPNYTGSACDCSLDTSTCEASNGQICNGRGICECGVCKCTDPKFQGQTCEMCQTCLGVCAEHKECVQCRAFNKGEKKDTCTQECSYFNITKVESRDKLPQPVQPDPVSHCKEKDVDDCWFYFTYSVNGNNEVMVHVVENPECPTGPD

As for `COc1ncc(C(CC(=O)O)n2ncc3cc(OCCc4ccc5c(n4)NCCC5)ccc32)cn1` (stereo not shown) [Example 92, 3-(2-Methoxypyrimidin-5-yl)-3-(5-(2-(5,6,7,8-tetrahydro-1,8-naphthyridin-2-yl)ethoxy)-1H-indazol-1-yl)propanoic acid, TFA], the IC50 on human αVβ3 was determined as 2.4 nM; at human αVβ8 it was 5000 nM; on human αVβ1, 210 nM; on human αVβ6 it was 31 nM; on human αVβ5 it was 0.39 nM.

Regarding `O=C(O)CC(c1cnc2c(c1)OCCN2)n1ncc2cc(OCCc3ccc4c(n3)NCCC4)ccc21` (stereo not shown) [Example 97, TFA], the IC50 at human αVβ3 amounted to 2.6 nM; on human αVβ8 it was 5000 nM; at human αVβ1, 100 nM; at human αVβ6, 10 nM; at human αVβ5, 0.59 nM.

Turning to `O=C(O)C[C@@H](c1cncc(CO)c1)n1ncc2cc(OCCc3ccc4c(n3)NCCC4)ccc21` [Example 100, (5)-3-(5-(Hydroxymethyl)pyridin-3-yl)-3-(5-(2-(5,6,7,8-tetrahydro-1,8-naphthyridin-2-yl)ethoxy)-1H-indazol-1-yl)propanoic acid], the IC50 at human αVβ3 was found to be 2.9 nM; at human αVβ8 it was 4400 nM; on human αVβ1, 140 nM; on human αVβ6, 14 nM; at human αVβ5 it was 0.41 nM.

On to `O=C(O)CC(c1cncc(C2OCCO2)c1)n1ncc2cc(OCCc3ccc4c(n3)NCCC4)ccc21` (stereo not shown) [Example 104, 3-(5-(1,3-Dioxolan-2-yl)pyridin-3-yl)-3(5-(2-(5,6,7,8-tetrahydro-1,8-naphthyridin-2-yl)ethoxy)-1H-indazol-1yl)propanoic acid], for which the IC50 on human αVβ3 worked out at 2.61 nM; at human αVβ8 it was 1800 nM; on human αVβ1, 30 nM; at human αVβ6 it was 12 nM; at human αVβ5 it was 0.28 nM.

Turning to `O=C(O)CC(c1cnc2[nH]ncc2c1)n1ncc2cc(OCCc3ccc4c(n3)NCCC4)ccc21` (stereo not shown) [Example 106, 3-(1H-Pyrazolo[3,4-b]pyridin-5-yl)-3-(5-(2-(5,6,7,8-tetrahydro-1,8-naphthyridin-2-yl)ethoxy)-1H-indazol-1-yl)propanoic acid, 2 TFA], the IC50 amounted to 1.3 nM at human αVβ3; 3000 nM on human αVβ8; 78 nM on human αVβ1; 23 nM on human αVβ6; 2.6 nM at human αVβ5.

Turning to `CCOc1ncc([C@H](CC(=O)O)n2ncc3cc(OCCc4ccc5c(n4)NCCC5)ccc32)cn1` [Example 107, (S)-3-(2-Ethoxypyrimidin-5-yl)-3-(5-(2-(5,6,7,8-tetrahydro-1,8-naphthyridin-2-yl)ethoxy)-1H-indazol-1-yl)propanoic acid, TFA], the IC50 is 2.4 nM at human αVβ3; 300 nM at human αVβ8; 64 nM at human αVβ1; 15 nM at human αVβ6; 0.32 nM at human αVβ5.

Turning to `Cn1ncc2cc(C(CC(=O)O)n3ncc4cc(OCCc5ccc6c(n5)NCCC6)ccc43)cnc21` (stereo not shown) [Example 117, 3-(1-Methyl-1H-pyrazolo[3,4-b]pyridin5-yl)-3-(5-(2-(5,6,7,8-tetrahydro-1,8-naphthyridin-2-yl)ethoxy)-1H-indazol-1-yl)propanoic acid, 2 TFA], the IC50 on human αVβ3 turned out to be 1.6 nM; on human αVβ8, 2200 nM; on human αVβ1, 63 nM; at human αVβ6 it was 19 nM; on human αVβ5, 0.46 nM.

With `COc1ncc([C@H](CC(=O)O)n2cc3ccc(CCc4ccc5c(n4)NCCC5)cc3n2)cn1` [Example 118, (5)-3-(2-Methoxypyrimidin-5-yl)-3-(6-(2-(5,6,7,8-tetrahydro-1,8-naphthyridin-2-yl)ethyl)-2H-indazol-2-yl)propanoic acid], the IC50 on human αVβ3 was determined as 2 nM; at human αVβ8 it was 3100 nM; on human αVβ1, 4300 nM; on human αVβ6, 12 nM; at human αVβ5, 1.1 nM.

For `O=C(O)CC(c1cnc(N2CCC2)nc1)n1ncc2cc(OCCc3ccc4c(n3)NCCC4)ccc21` (stereo not shown) [Example 119, 3-(2-(Azetidin-1-yl)pyrimidin-5-yl)-3-(5-(2-(5,6,7,8-tetrahydro-1,8-naphthyridin-2-yl)ethoxy)-1H-indazol-1-yl)propanoic acid, 2 TFA], the IC50 on human αVβ3 is 1.4 nM; on human αVβ8 it was 4400 nM; on human αVβ1, 98 nM; at human αVβ6, 10.6 nM; on human αVβ5, 0.6 nM.

With `Cn1cc2cc(C(CC(=O)O)n3ncc4cc(OCCc5ccc6c(n5)NCCC6)ccc43)cnc2n1` (stereo not shown) [Example 120, 3-(2-Methyl-2H-pyrazolo[3,4-b]pyridin-5-yl)-3-(5-(2-(5,6,7,8-tetrahydro-1,8-naphthyridin-2-yl)ethoxy)-1H-indazol-1-yl)propanoic acid, 2 TFA], the IC50 on human αVβ3 turned out to be 1.5 nM; at human αVβ8, 7500 nM; at human αVβ1, 200 nM; at human αVβ6 it was 16 nM; on human αVβ5, 0.2 nM.

On to `O=C(O)CC(c1cncc(-c2cnco2)c1)n1ncc2cc(OCCc3ccc4c(n3)NCCC4)ccc21` (stereo not shown) [Example 121, 3-(5-(Oxazol-5-yl)pyridin-3-yl)-3-(5-(2-(5,6,7,8-tetrahydro-1,8-naphthyridin-2-yl)ethoxy)-1H-indazol-1-yl)propanoic acid], for which the concentration for half-maximal inhibition (IC50) on human αVβ3 came out at 3.1 nM; at human αVβ8, 2600 nM; on human αVβ1 it was 71 nM; at human αVβ6 it was 8.8 nM; at human αVβ5 it was 0.46 nM.
